Measured values as given in PubChem BioAssay AID2286 (Southern Research Specialized Biocontainment Screening …, 2010).
Activity calls are given as the source filed them.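 Rule for the calls: active = minimum cell viability of 80% or lower across the dose range, counted as toxic; inactive = minimum cell viability above 80%.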

Assays:
[1] = MAGI-CCR5 and HeLa-R5-16 cytotoxicity, dose response, cytotoxicity control for HIV-1 fusion inhibitor project, cell-based, MAGI and MAGI-HeLa co-culture (AID 2286); conditions: MAGI-CCR5 cells viability, CellTiter-Glo ATP luminescence; for minimum viability: measured here: MAGI minimum viability across doses;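 for all read-outs here: cells exposed to compound for at least 64 h before ATP readout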;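 for minimum viability: 100% = median of DMSO vehicle wells with no ATP signal meaning 0%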;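 for viability: 100% = median of DMSO vehicle wells with no ATP signal meaning 0%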
[2] = tested on: MAGI-CCR5 cells viability, CellTiter-Glo ATP luminescence; experiment: as above
[3] = MAGI-HeLa co-culture viability, at 50 µM, stronger effect = lower value
[4] = measured here: MAGI + HeLa-R5-16 co-culture viability

O=[N+]([O-])c1cccc(S(=O)(=O)Nc2nc3ccccc3nc2Nc2cccc(S(=O)(=O)N3CCCCC3)c2)c1
viability [1, 3]: 20.4%
minimum viability ([1]; at 50 µM, stronger effect = lower value): 19.9%
CC50 [2]: 7.22 µM
CC50 [2, 4]: 14.1 µM

Brc1ccc(N/N=C(/N=Nc2nn[nH]n2)c2ccccc2)cc1
viability [1, 3]: 20.1%
minimum viability ([1]; at 50 µM, stronger effect = lower value): 44.6%
CC50 [2]: 32.8 µM
CC50 [2, 4]: 23.5 µM

CC(C(=O)Nc1ccc(O)c(C(=O)O)c1)N1C(=O)/C(=C/c2cccs2)SC1=S (stereo not drawn)
viability [1, 3]: 66.1%
minimum viability ([1]; at 50 µM, stronger effect = lower value): 51.2%
CC50 [2]: 46.4 µM
CC50 [2, 4]: > 50 µM

Oc1c(Cl)cc(Cl)c(Cl)c1Cc1c(O)c(Cl)cc(Cl)c1Cl
viability [1, 3]: 23%
minimum viability ([1]; at 50 µM, stronger effect = lower value): 15.7%
CC50 [2]: 1.96 µM
CC50 [2, 4]: 7.05 µM

O=C(Nc1cc(S(=O)(=O)N2CCCCC2)ccc1Cl)c1ccccc1NS(=O)(=O)c1ccc(F)cc1
viability [1, 3]: 24.8%
minimum viability ([1]; at 12.5 µM, stronger effect = lower value): 19.1%
CC50 [2]: 2.49 µM
CC50 [2, 4]: 7.38 µM

COc1ccc(-c2csc(NC(=O)c3ccccc3NS(=O)(=O)c3ccc(C)cc3)n2)cc1
viability [1, 3]: 24.4%
minimum viability ([1]; at 50 µM, stronger effect = lower value): 20%
CC50 [2]: 4.93 µM
CC50 [2, 4]: 10.9 µM

COc1cc(/C=C2\SC(=S)NC2=O)ccc1OS(=O)(=O)c1ccccc1
viability [1, 3]: 35.9%
minimum viability ([1]; at 50 µM, stronger effect = lower value): 24.8%
CC50 [2]: 17.9 µM
CC50 [2, 4]: 40.7 µM

COc1ccc(S(=O)(=O)Nc2ccccc2C(=O)Nc2nc(-c3ccc(F)cc3)cs2)cc1OC
viability [1, 3]: 27.5%
minimum viability ([1]; at 50 µM, stronger effect = lower value): 18.4%
CC50 [2]: 6.51 µM
CC50 [2, 4]: 14.8 µM

COc1ccc(C(=O)/C=C/c2ccc(OCc3ccccc3)cc2)cc1CSCC(=O)O
viability [1, 3]: 86.3%
minimum viability ([1]; at 50 µM, stronger effect = lower value): 42.6%
CC50 [2]: 46 µM

O=C(O)CCn1cc(/C=C/C(=O)c2ccc(Cl)cc2)c(-c2cccc(Br)c2)n1
viability [1, 3]: 87%
minimum viability ([1]; at 50 µM, stronger effect = lower value): 40.5%
CC50 [2]: 43.1 µM

C=CC#CC[N+]1(CC#Cc2ccccc2)CCOCC1
viability [1, 3]: 70%
minimum viability ([1]; at 50 µM, stronger effect = lower value): 76.2%
CC50 [2, 4]: > 50 µM

O=C(O)c1ccc(Nc2nc(-c3cc4ccccc4oc3=O)cs2)cc1O
viability [1, 3]: 77.6%
viability ([1]; at 50 µM (top of the series)): 85.6% (inactive)
minimum viability ([1]; at 50 µM, stronger effect = lower value): 85.6%
CC50 [2, 4]: > 50 µM

O=[N+]([O-])c1cc(Cl)cc(/C=N/NC(=S)Nc2cc(S(=O)(=O)N3CCOCC3)ccc2Cl)c1O
viability [1, 3]: 65.7%
minimum viability ([1]; at 50 µM, stronger effect = lower value): 34.7%
CC50 [2]: 31.1 µM
CC50 [2, 4]: > 50 µM

CCOc1cc(/C=C2\C(=O)N(c3cccc(C(=O)O)c3)N=C2C(F)(F)F)ccc1OCC(=O)Nc1ccccc1OC
viability [1, 3]: 51.6%
viability ([1]; at 25 µM (top of the series)): 88.7% (inactive)
minimum viability ([1]; at 6.25 µM, stronger effect = lower value): 85.3%
CC50 [2, 4]: 47.3 µM

N#C/C(=C\c1ccc(O)c([N+](=O)[O-])c1)c1nc2ccccc2s1
viability [1, 3]: 41.9%
minimum viability ([1]; at 50 µM, stronger effect = lower value): 21.9%
CC50 [2]: 11.7 µM
CC50 [2, 4]: 43.8 µM

CC(/C=C1\SC(=S)N(CCCC(=O)Nc2ccc(C(=O)O)cc2)C1=O)=C\c1ccccc1
viability [1, 3]: 69.6%
minimum viability ([1]; at 50 µM, stronger effect = lower value): 60.9%
CC50 [2, 4]: > 50 µM

COc1cc(/C=C2/SC(=S)N(Cc3ccccc3)C2=O)ccc1OCC(=O)O
viability [1, 3]: 79%
minimum viability ([1]; at 50 µM, stronger effect = lower value): 4.94%
CC50 [2]: 30.2 µM
CC50 [2, 4]: > 50 µM

CCc1oc2ccccc2c1C(=O)c1cc(Br)c(O)c(Br)c1
viability [1, 3]: 52.7%
minimum viability ([1]; at 50 µM, stronger effect = lower value): 38.8%
CC50 [2]: 43.5 µM
CC50 [2, 4]: > 50 µM

COc1cc(/C=C(\C#N)c2nc3ccccc3s2)cc([N+](=O)[O-])c1O
viability [1, 3]: 101%
minimum viability ([1]; at 50 µM, stronger effect = lower value): 43.3%
CC50 [2]: 38.1 µM

CCCCCCCCCCCCCCCCn1cc[n+](CC(C)=O)c1
viability [1, 3]: 3.56%
minimum viability ([1]; at 50 µM, stronger effect = lower value): 2.77%
CC50 [2]: 1.36 µM
CC50 [2, 4]: 2.09 µM

O=C(O)COc1ccc(/C=C/C(=O)c2ccc(C3CCCCC3)cc2)cc1
viability [1, 3]: 76.3%
minimum viability ([1]; at 50 µM, stronger effect = lower value): 48.7%
CC50 [2]: 49.7 µM
CC50 [2, 4]: > 50 µM

O=C(O)C1Nc2ccc(Br)cc2C2C=CCC12 (stereo not drawn)
viability [1, 3]: 74.1%
viability ([1]; at 50 µM (top of the series)): 98% (inactive)
minimum viability ([1]; at 0.2 µM, stronger effect = lower value): 90.6%
CC50 [2, 4]: > 50 µM

O=S(=O)(Nc1nc(-c2sccc2Cl)cs1)c1cc(Cl)ccc1Cl
viability [1, 3]: 70.8%
minimum viability ([1]; at 50 µM, stronger effect = lower value): 47.7%
CC50 [2, 4]: > 50 µM

CCOc1ccc(CCNC(=O)c2ccc3c(=O)[nH]c4c(C(=O)NC(C)C)sc(=S)n4c3c2)cc1
viability [1, 3]: 93.9%
minimum viability ([1]; at 50 µM, stronger effect = lower value): 45.6%
CC50 [2]: 37.2 µM

CCCCCC(=O)Cc1cc(O)cc2c1C(=O)Oc1cc(O)c(C(=O)O)c(CCCCC)c1O2
viability [1, 3]: 46.4%
minimum viability ([1]; at 50 µM, stronger effect = lower value): 39.1%
CC50 [2]: 43.3 µM
CC50 [2, 4]: 46.7 µM

CN(C)S(=O)(=O)c1cccc(-c2nn(-c3ccccc3)cc2/C=C2\SC(=S)NC2=O)c1
viability [1, 3]: 35.7%
minimum viability ([1]; at 50 µM, stronger effect = lower value): 27.8%
CC50 [2]: 10 µM
CC50 [2, 4]: 25.5 µM

CCOc1cc(/C=C2\C(=N)N3N=C(S(C)(=O)=O)SC3=NC2=O)ccc1OCCOc1cccc(OC)c1
viability [1, 3]: 47.3%
minimum viability ([1]; at 50 µM, stronger effect = lower value): 78%
CC50 [2, 4]: 43.2 µM

Cc1cccc(C)c1-n1cccc1/C=C1\SC(=S)N(c2cccc(C(=O)O)c2)C1=O
viability [1, 3]: 67.8%
minimum viability ([1]; at 50 µM, stronger effect = lower value): 62.3%
CC50 [2, 4]: > 50 µM

COc1cc(/C=C2/SC(=S)NC2=O)ccc1OS(=O)(=O)c1ccc(C)cc1
viability [1, 3]: 28.8%
minimum viability ([1]; at 50 µM, stronger effect = lower value): 21.6%
CC50 [2]: 12 µM
CC50 [2, 4]: 28.9 µM

COc1cc([N+](=O)[O-])cc(/C=C2/SC(=S)N(Cc3ccccc3)C2=O)c1O
viability [1, 3]: 16.4%
minimum viability ([1]; at 25 µM, stronger effect = lower value): 5.81%
CC50 [2]: 8.44 µM
CC50 [2, 4]: 29.2 µM

Cc1nn(CCc2nn[nH]n2)c2nc(-c3ccc(C4CCCCC4)cc3)cc(C(F)(F)F)c12
viability [1, 3]: 66.9%
minimum viability ([1]; at 50 µM, stronger effect = lower value): 42.9%
CC50 [2]: 36.3 µM
CC50 [2, 4]: > 50 µM

CCS(=O)(=O)C1=NN2C(=N)/C(=C\c3ccc(OCCOc4cccc(OC)c4)c(OC)c3)C(=O)N=C2S1
viability [1, 3]: 50%
viability ([1]; at 50 µM (top of the series)): 83.7% (inactive)
minimum viability ([1]; at 50 µM, stronger effect = lower value): 83.7%
CC50 [2, 4]: 40.1 µM

O=C(O)c1ccc(N/N=C/c2ccc(-c3cccc(Cl)c3)o2)cc1
viability [1, 3]: 10.1%
minimum viability ([1]; at 50 µM, stronger effect = lower value): 21.6%
CC50 [2]: 10.3 µM
CC50 [2, 4]: 2.83 µM
